This is an account of results in PubChem BioAssay (NCI).

Among the test systems are A549 NSCLC; BT-549 breast; DU-145 prostate; HOP-92 NSCLC; LOX IMVI melanoma; NCI-H522 lung; OVCAR-4 ovarian; SF-539 CNS; SK-MEL-28 melanoma; SW-620 colon.
Holding throughout (assay): NCI anticancer screen, dose series, 48 h

SMILES strings stand for the structures.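 Cells were grown in 96-well plates and exposed to each compound for 48 hours at five concentrations; endpoints were interpolated linearly between bracketing concentrations, or set to the highest concentration if not reached. TGI: total growth inhibition.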

Turning to `C/C(CC(O)(C(F)(F)F)C(F)(F)F)=N\O`, the TGI with A549 NSCLC, in the assay on BT-549 breast, with DU-145 prostate, in the assay on HOP-92 NSCLC, in the assay with LOX IMVI melanoma and with NCI-H522 lung was over 10 µM each time. In addition, the TGI with OVCAR-4 ovarian, in the assay on SF-539 CNS, in the assay on SK-MEL-28 melanoma and in the assay on SW-620 colon was over 10 µM throughout.

As to `O=C1CC(c2cccc([N+](=O)[O-])c2)C2(C(=O)NC(=S)NC2=O)C(c2cccc([N+](=O)[O-])c2)C1` (stereo unspecified), the TGI in the assay with A549 NSCLC is over 100 µM; with BT-549 breast it was 81.4 µM; in the assay with DU-145 prostate, over 100 µM; in the assay with HOP-92 NSCLC, over 100 µM; with LOX IMVI melanoma, 34 µM; with NCI-H522 lung it was 89.6 µM. Further, the TGI in the assay with OVCAR-4 ovarian, in the assay on SF-539 CNS, in the assay on SK-MEL-28 melanoma and in the assay with SW-620 colon was over 100 µM in each case.

Turning to `C[C@H](CCc1nc(C#N)c(N)o1)[C@H]1CC[C@H]2[C@@H]3CCC4C[C@@H](O)CC[C@]4(C)[C@H]3C[C@@H](O)[C@]12C` (stereo partly specified), the TGI came out at 23 µM in the assay with A549 NSCLC; 14.7 µM in the assay with BT-549 breast; 28 µM with DU-145 prostate; 28 µM with HOP-92 NSCLC; 23.8 µM in the assay on LOX IMVI melanoma; 16.2 µM with NCI-H522 lung. Moreover, the TGI was 4.92 µM in the assay on OVCAR-4 ovarian, 27.6 µM with SF-539 CNS, 26.6 µM in the assay on SK-MEL-28 melanoma and 27.4 µM in the assay on SW-620 colon.

As to `COC1(C)CCC(OS(C)(=O)=O)CO1` (stereo unspecified), the TGI in the assay on A549 NSCLC, in the assay with BT-549 breast, in the assay with DU-145 prostate, with HOP-92 NSCLC, in the assay with LOX IMVI melanoma and in the assay on NCI-H522 lung was over 100 µM throughout. For the same compound, the TGI with OVCAR-4 ovarian, in the assay with SF-539 CNS, with SK-MEL-28 melanoma and in the assay on SW-620 colon was over 100 µM each time.

`COc1ccc(-c2nc(-c3cnccn3)n(C/C=C/c3ccccc3)n2)cc1`: the TGI in the assay with A549 NSCLC is over 100 µM; in the assay on BT-549 breast it was over 100 µM; in the assay on DU-145 prostate, over 100 µM; in the assay with HOP-92 NSCLC, 37 µM; in the assay on LOX IMVI melanoma, over 100 µM; with NCI-H522 lung it was over 100 µM. In addition, the TGI in the assay on OVCAR-4 ovarian is 98.6 µM; in the assay on SF-539 CNS, over 100 µM; in the assay on SK-MEL-28 melanoma, over 100 µM; with SW-620 colon it was over 100 µM.

In the case of `C[C@@H]1C[C@@H]2OC(=O)[C@]3(C)[C@H]2[C@@H](OC3(C)O)[C@]2(C)C(=O)C=C[C@@H]12` (stereo partly specified), the TGI in the assay on A549 NSCLC is over 100 µM; in the assay on BT-549 breast it was 23.1 µM; in the assay with DU-145 prostate it was over 100 µM; in the assay with HOP-92 NSCLC it was 38.9 µM; in the assay with LOX IMVI melanoma, 43 µM; in the assay with NCI-H522 lung it was 23.8 µM. Besides, the TGI in the assay on OVCAR-4 ovarian is 35.9 µM; in the assay with SF-539 CNS it was over 100 µM; with SK-MEL-28 melanoma, 45 µM; with SW-620 colon, 51.9 µM.

With `CSCCC(NC(=O)C(Cc1c[nH]c2ccccc12)NC(=O)CCNC(=O)OC(C)(C)C)C(=O)NC(CC(=O)O)C(=O)NC(Cc1ccccc1)C(N)=O` (stereo unspecified), the TGI in the assay with A549 NSCLC, with BT-549 breast, in the assay on DU-145 prostate, with HOP-92 NSCLC, with LOX IMVI melanoma and in the assay on NCI-H522 lung was over 50 µM each time. In addition, the TGI in the assay on SF-539 CNS, in the assay with SK-MEL-28 melanoma and in the assay with SW-620 colon was over 50 µM each time.

On to `COC1OC(C)/C(=N/O)C2OC(C)(C)OC12` (stereo unspecified), for which the TGI with A549 NSCLC, with BT-549 breast, in the assay with DU-145 prostate, in the assay with HOP-92 NSCLC, in the assay on LOX IMVI melanoma and in the assay on NCI-H522 lung was over 100 µM each time. Also, the TGI in the assay with OVCAR-4 ovarian, in the assay with SF-539 CNS, with SK-MEL-28 melanoma and with SW-620 colon was over 100 µM throughout.

Take `O=C(NNC(=O)c1ccc(Cl)cc1NC(=O)C12CC3CC(CC(C3)C1)C2)c1ccc(Cl)cc1`: the TGI with A549 NSCLC was 42.8 µM; with BT-549 breast, over 100 µM; in the assay on DU-145 prostate it was 62.1 µM; in the assay with HOP-92 NSCLC, 51.9 µM; in the assay with LOX IMVI melanoma, 37.7 µM; in the assay on NCI-H522 lung it was 36 µM. In addition, the results for the TGI with OVCAR-4 ovarian, with SF-539 CNS and with SW-620 colon were over 100 µM, 46.6 µM and over 100 µM, respectively.

For `O=C(O)c1c(CC(Cc2ccccc2)C(=O)O)ccc2c1CCC2` (stereo unspecified), the TGI in the assay on A549 NSCLC, in the assay on BT-549 breast, in the assay with DU-145 prostate, in the assay on HOP-92 NSCLC, in the assay with LOX IMVI melanoma and in the assay with NCI-H522 lung was over 100 µM throughout. In addition, the TGI in the assay with OVCAR-4 ovarian, with SF-539 CNS, with SK-MEL-28 melanoma and in the assay on SW-620 colon was over 100 µM throughout.

For the compound `O=S1(=O)N=C(SCc2c[nH]c3ccccc23)N(c2ccccc2)c2ccncc21`, the TGI with A549 NSCLC, in the assay with BT-549 breast, in the assay on DU-145 prostate, with HOP-92 NSCLC, in the assay with LOX IMVI melanoma and in the assay with NCI-H522 lung was over 100 µM each time. Further, the TGI is over 100 µM with OVCAR-4 ovarian, 80.5 µM with SF-539 CNS, over 100 µM in the assay with SK-MEL-28 melanoma and over 100 µM with SW-620 colon.

In the case of `Cc1c2oc(=O)c(C#N)cc2c2ccccn12`, the TGI in the assay with A549 NSCLC, in the assay with BT-549 breast, in the assay on DU-145 prostate, with HOP-92 NSCLC, in the assay with LOX IMVI melanoma and with OVCAR-4 ovarian was over 100 µM throughout. The TGI in the assay with SF-539 CNS, in the assay with SK-MEL-28 melanoma and in the assay with SW-620 colon was over 100 µM in each case.

With `Clc1cc(Cl)nc(Nc2ccc3c(c2)CCC3)n1`, the TGI in the assay with A549 NSCLC was over 100 µM; with BT-549 breast, over 100 µM; with DU-145 prostate it was over 100 µM; with HOP-92 NSCLC, over 100 µM; in the assay on LOX IMVI melanoma, 91.1 µM; in the assay with OVCAR-4 ovarian, over 100 µM. Also, the TGI with SF-539 CNS, in the assay on SK-MEL-28 melanoma and in the assay on SW-620 colon was over 100 µM each time.
